# Data published in patent publication US12251373B2, “Compounds and methods of treating retinal degeneration” (CASE WESTERN RESERVE UNIVERSITY, priority 2017, dated 2025).
# Assays:
# ovine COX-1 = molecular target: T1, ovine COX-1 (Ovis aries, UniProt P05979); assay: COX-1 activity assay; type: biochemical; details: up to 80 μM of YC-001
# T1 construct: purchased Abcam
# T1 sequence (P05979 25-600): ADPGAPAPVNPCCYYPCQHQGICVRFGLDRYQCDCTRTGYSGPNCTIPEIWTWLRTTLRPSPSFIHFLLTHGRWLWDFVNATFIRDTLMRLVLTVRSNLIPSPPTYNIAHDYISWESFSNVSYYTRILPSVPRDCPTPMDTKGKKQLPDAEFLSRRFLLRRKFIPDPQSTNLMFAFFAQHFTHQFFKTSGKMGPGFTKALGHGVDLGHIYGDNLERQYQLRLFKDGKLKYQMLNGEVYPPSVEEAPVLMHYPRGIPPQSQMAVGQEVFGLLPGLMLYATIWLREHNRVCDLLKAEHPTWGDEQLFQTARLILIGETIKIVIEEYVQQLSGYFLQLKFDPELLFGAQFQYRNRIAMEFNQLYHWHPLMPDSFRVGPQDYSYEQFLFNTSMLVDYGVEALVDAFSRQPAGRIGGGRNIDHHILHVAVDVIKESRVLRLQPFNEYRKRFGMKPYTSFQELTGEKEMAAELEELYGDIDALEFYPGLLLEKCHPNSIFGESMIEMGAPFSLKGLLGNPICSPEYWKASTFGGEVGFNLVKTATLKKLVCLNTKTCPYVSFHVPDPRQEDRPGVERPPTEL
# Experimental: The effect of the compound YC-001 on cyclooxygenase 1 (COX-1) activity was evaluated using the COX1 Inhibitor Screening Kit (Abcam, Cambridge, MA, USA) according to the manufacture's protocol. Briefly, the assay is based on the fluorometric detection of Prostaglandin G2, the intermediate product generated by the COX-1 enzyme. COX reaction mix included ovine COX-1, COX probe and COX cofactor and was prepared in a 96-well plate. YC-001 working solutions were dissolved in DMSO, and then mixed with COX Reaction Mix to the final concentrations (80, 40, 20, 10, 5, 2.5, 1.25, 0.625, 0.312, 0.156, 0.078 and 0.039 μM). Equivalent volume of DMSO was used as vehicle control and SC560 was used as a positive control. All controls and samples were measured in triplicate. Then Arachidonic Acid was added into each well to initiate all the reactions at the same time. The fluorescence was measured at Ex/Em=535/587 nm in a kinetic mode for 15 min at 25° C. Five time points were chosen in the linear range of the plot and the corresponding values for the fluorescence were used to calculate the slope of the linear regression equation. Relative COX-1 activity was calculated as Equation 5: […]
# [1] = Pharmacokinetics of YC-001 in mouse plasma; type: in vivo
# Experimental: C57BL/6J mice ranging from 8 to 12 weeks of age were purchased from Jackson Labs. For administration, YC-001 was dissolved in DMSO at 160 mg mL^−1. To obtain the blood clearance curve for YC-001, each animal was treated by intraperitoneal injection of YC-001 at 200 mg kg^−1 bw. After administration, blood was collected at 5, 10, 15, 20, 30, 45, 60 and 90 min from the orbital sinus and dropped into K2EDTA blood collection tubes (FisherScientific). Mice were anesthetized with a ketamine/xylazine cocktail two min before blood collection. The blood samples were then incubated at 4° C. for 2 h before centrifugation at 1,800×g for 20 min to collect the supernatant that was the plasma. Plasma was mixed with twice the volume of methanol and then stored at −80° C. YC-001 was extracted from the samples (300 to 600 μL) with 0.6 mL chloroform. The chloroform fraction was collected, dried, and the extracted organic compounds were dissolved in 0.25 mL of methanol. One hundred-μL of each sample was injected onto an Eclipse XDB-C18 column (4.6×150 mm, 5 μm) and YC-001 was detected and quantified as described in the section Metabolic stability of YC-001.
structure (smiles),measurement,setting,value
O=C1OCC(c2ccc(Cl)s2)=C1c1cccs1 [YC-001],COX-1 enzymatic activity,ovine COX-1,didn't see changes
same,elimination rate constant (Ke),[1]; 0.693/T1/2,0.0201 min⁻¹
same,volume of distribution (Vd),[1]; Dose/C0,27.5 L kg−1 bw
same,Clearance,[1]; Ke×Vd,0.552 L min−1 kg−1 bw
